Assay results reported in US20240016150A1, “MIXTURES CONTAINING METARYLPICOXAMID” (BASF SE, priority 2020, published 2024).

What was measured:
Phakopsora pachyrhizi = test: Greenhouse: curative control of soybean rust on soybeans; assay type: in vivo; settings: single active, sprayed to run-off, soybean seedlings, assessed after 14 days
Experimental: EXAMPLE 1—Curative control of soybean rust on soybeans caused by Phakopsora pachyrhizi
Leaves of potted soybean seedlings were inoculated with spores of Phakopsora pachyrhizi. To ensure the success of the artificial inoculation, the plants were transferred to a humid chamber with a relative humidity of about 95% and 20 to 24 ? C for 24 h. The next day the plants were cultivated for 2 days in a greenhouse chamber at 23-27 °C and a relative humidity between 60 and 80%. Then the plants were sprayed to run-off with the previously described spray solution, containing the concentration of active ingredient or their mixture as described below. The plants were allowed to air-dry. Then the trial plants were cultivated for 14 days in a greenhouse chamber at 23-27 °C and a relative humidity between 60 and 80%. The extent of fungal attack on the leaves was visually assessed as % diseased leaf area.
The disease ratings (or diseased leaf area) were converted into efficacies.
An efficacy of 0 means that the infection level of the treated plants corresponds to that of the untreated control plants; an efficacy of 100 means that the treated plants were not infected.
The expected efficacies of active compound mixtures were determined using Colby's formula [R.S. Colby, “Calculating synergistic and antagonistic responses of herbicide combinations”, Weeds 15, 20-22 (1967)] and compared with the observed efficacies.

Septoria tritici = test: Microtest: activity against leaf blotch on wheat; assay type: cell-based; settings: single active, MTP, 405 nm, 7 days after inoculation
Experimental: The active compounds were formulated separately as a stock solution having a concentration of 10000 ppm in dimethyl sulfoxide. The stock solutions were mixed according to the ratio, pipetted onto a micro titer plate (MTP) and diluted with water to the stated concentrations. EXAMPLE 1—Activity against leaf blotch on wheat caused by Septoria tritici A spore suspension of Septoria tritici in an aqueous biomalt or yeast-bactopeptone-glycerine or DOB solution was then added. The plates were placed in a water vapor-saturated chamber at a temperature of 18° C. Using an absorption photometer, the MTPs were measured at 405 nm 7 days after the inoculation. The measured parameters were compared to the growth of the active compound-free control variant (100%) and the fungus-free blank value to determine the relative growth in % of the pathogens in the respective active compounds. These percentages were converted into efficacies. An efficacy of 0 means that the growth level of the pathogens corresponds to that of the untreated control; an efficacy of 100 means that the pathogens were not growing. The expected efficacies of active compound mixtures were determined using Colby's formula [R.S. Colby, “Calculating synergistic and antagonistic responses of herbicide combinations”, Weeds 15, 20-22 (1967)] and compared with the observed efficacies.

Alternaria solani = test: Microtest: activity against early blight; assay type: cell-based; settings: single active, MTP, 405 nm, 7 days after inoculation
Experimental: The active compounds were formulated separately as a stock solution having a concentration of 10000 ppm in dimethyl sulfoxide. The stock solutions were mixed according to the ratio, pipetted onto a micro titer plate (MTP) and diluted with water to the stated concentrations. Example 2—Activity against early blight caused by Alternaria solani A spore suspension of Alternaria solani in an aqueous biomalt or yeast-bactopeptone-glycerine or DOB solution was then added. The plates were placed in a water vapor-saturated chamber at a temperature of 18° C. Using an absorption photometer, the MTPs were measured at 405 nm 7 days after the inoculation. The measured parameters were compared to the growth of the active compound-free control variant (100%) and the fungus-free blank value to determine the relative growth in % of the pathogens in the respective active compounds. These percentages were converted into efficacies. An efficacy of 0 means that the growth level of the pathogens corresponds to that of the untreated control; an efficacy of 100 means that the pathogens were not growing. The expected efficacies of active compound mixtures were determined using Colby's formula [R.S. Colby, “Calculating synergistic and antagonistic responses of herbicide combinations”, Weeds 15, 20-22 (1967)] and compared with the observed efficacies.

## CCC(=O)Oc1c(OC)ccnc1C(=O)N[C@@H](C)C(=O)O[C@@H](C)[C@@H](C)c1ccccc1C [Compound I, [(1S,2S)-1-methyl-2-(o-tolyl)propyl] (2S)-2-[(4-methoxy-3-propanoyloxy-pyridine-2-carbonyl)amino]propanoate]
Phakopsora pachyrhizi; 1 ppm
  Observed efficacy: 18
Septoria tritici; 4 ppm
  Observed efficacy: 56
Alternaria solani; 1 ppm
  Observed efficacy: 0

## O=C(NC1CCC1c1ccc(Cl)cc1Cl)c1cccnc1C(F)(F)F (centres unmarked) [Compound II-2, N-[2-(2,4-dichlorophenyl)cyclobutyl]-2-(trifluoromethyl)pyridine-3-carboxamide]
Septoria tritici; 0.063 ppm
  Observed efficacy: 12
Septoria tritici; 0.25 ppm
  Observed efficacy: 49

## CON(Cc1ccc(-c2noc(C(F)(F)F)n2)cc1)C(=O)C1CC1 [Compound II-1, N-methoxy-N-[[4-[5-(trifluoromethyl)-1,2 ,4-oxadiazol-3-yl]phenyl]methyl]cyclopropanecarboxamide]
Phakopsora pachyrhizi; 0.25 ppm
  Observed efficacy: 0
Phakopsora pachyrhizi; 1 ppm
  Observed efficacy: 14
Alternaria solani; 0.016 ppm
  Observed efficacy: 0
